Experimental data from US20190100517A1, “COMPOUNDS” (GlaxoSmithKline Intellectual Property Development Limited, priority 2015, published 2019).
Values joined by “and” are separate entries in the source; they are usually repeats but may differ in a detail not shown here. Equal entries are not always repeated.

These compounds were tested against human KMO (Homo sapiens, UniProt O15229) (assay: KMO MS Rapidfire assay (RapidFire high-throughput mass spectrometry, Method 1 or Method 2)).
Sequence of human KMO (O15229 whole entry): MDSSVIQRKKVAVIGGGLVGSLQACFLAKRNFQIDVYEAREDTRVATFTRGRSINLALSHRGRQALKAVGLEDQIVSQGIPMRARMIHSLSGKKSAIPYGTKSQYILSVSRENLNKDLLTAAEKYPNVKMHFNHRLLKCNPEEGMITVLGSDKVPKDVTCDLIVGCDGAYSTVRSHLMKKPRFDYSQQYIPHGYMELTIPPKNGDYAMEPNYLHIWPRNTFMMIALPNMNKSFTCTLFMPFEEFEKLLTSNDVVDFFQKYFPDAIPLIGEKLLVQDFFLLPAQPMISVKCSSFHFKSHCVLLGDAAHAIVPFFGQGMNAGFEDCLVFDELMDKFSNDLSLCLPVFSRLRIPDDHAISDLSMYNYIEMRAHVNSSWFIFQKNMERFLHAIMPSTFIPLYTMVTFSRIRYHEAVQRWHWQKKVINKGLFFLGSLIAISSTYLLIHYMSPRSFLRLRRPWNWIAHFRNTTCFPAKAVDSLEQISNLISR
Procedure: KMO inhibition can be determined by MS Rapidfire assay performed on the human cloned enzyme as described herein.
pFastbac1 GST-KMO was transposed into the baculovirus genome using the BAC-to-BAC technology (Invitrogen) and bacmid DNA was prepared and transfected into Spodoptera frugiperda (Sf9) cells using Cellfectin II (Invitrogen).
A P1 virus stock was generated from a single clone and used to infect 3×1.5 L cultures of Sf9 cells in 3 L Corning Fernbach flasks. The Sf9 cells were grown in Hyclone SFX media (Thermo Scientific) to about 3×10^6 cells/ml and were infected at a nominal multiplicity of infection of 3. Cells were harvested after 48 hours and disrupted by blending in 50 mM HEPES, pH 7.4, 1 mM EDTA buffer containing protease inhibitors. A low speed spin (400 g) was used to remove cell debris, followed by a high speed spin (75 000 g) to pellet the membranes. The membranes were purified in a discontinuous sucrose density gradient by re-suspending in 10% (w/v) sucrose and layering over 40% (w/v) sucrose, both in the above buffer. This was centrifuged at 150 000 g and the purified membranes were taken from the interface, collected by centrifugation at 100 000 g, resuspended in buffer and aliquoted for storage at −80° C.
100 nL DMSO was dispensed into columns 6 and 18 for high and low controls, respectively, with prior inactivation of the enzyme in column 18 by pre-dispense of 30 μL of 0.5% (v/v) TFA.
Conditions for the assay of human KMO using isolated KMO-membranes were 50 mM HEPES, pH 7.5, 2 mM DTT, 1 mM EDTA, 100 μM CHAPS, 200 μM NADPH, 10 μM Kynurenine and 8 μg/ml KMO-membranes in a total reaction volume of 10 μL.
Assays were performed by initially dispensing 5 μL of a 2× Enzyme solution (16 μg/ml KMO-membranes in 50 mM HEPES, pH 7.5, 2 mM DTT, 2 mM EDTA, 200 μM CHAPS) into plates containing 100 nL compounds and incubating for 10 min at ambient temperature. Reactions were initiated by addition of 5 μL of 2× Substrate solution (400 μM NADPH, 20 μM Kynurenine in 50 mM HEPES, pH 7.5, 2 mM DTT) and incubated for 2 h at room temperature before quenching the reaction with 30 μL of 0.5% (v/v) TFA. Plates were centrifuged at 2500 rpm for 10 min before analysis. All additions were made using a Multidrop Combi dispenser (Thermo Fisher Scientific).
Quenched assay plates were transferred to a high-throughput RapidFire200 integrated autosampler/solid-phase extraction (SPE) system (Agilent Technologies, Wakefield, Mass.). […] Analytes were then eluted into the mass spectrometer, in a 3 s elution cycle, using 80% (v/v) acetonitrile/water containing 0.1% (v/v) formic acid, and the cartridge was then equilibrated by washing with water containing 0.1% (v/v) formic acid for 500 ms. This gave a total cycle time of 7 s, enabling analysis of a 384-well plate in approximately 45 min.
Both Kyn and 3-HK were detected using a Sciex AP14000 triple quadrupole mass spectrometer (Applied Biosystems, Concord, Ontario, Canada), equipped with an electrospray interface and operated in positive ion mode. […] The mass spectrometer used an ESI voltage of 5500 V and a source temperature of 600° C., with a dwell time of 50 ms for each transition.
Individual MRM transitions were saved as text files and the extracted ion chromatograms were integrated and processed using the RapidFire® peak integration software (version 3.6).
For Cc1ccc(C(C)Oc2cc3sc(=O)n(CCC(=O)O)c3cc2Cl)nn1 (single isomer, unassigned) [Example 16, 3-{5-chloro-6-[1-(6-methylpyridazin-3-yl)ethoxy]-2-oxo-2,3-dihydro-1,3-benzothiazol-3-yl}propanoic acid], the IC50 was ≤ 10 nM. For Cc1ccc([C@@H](C)Oc2cc3sc(=O)n(CCC(=O)O)c3cc2Cl)nc1 [Example 33, 3-{5-chloro-6-[(1R)-1-(5-methylpyridin-2-yl)ethoxy]-2-oxo-2,3-dihydro-1,3-benzothiazol-3-yl}propanoic acid], the IC50 was ≤ 10 nM. For CCc1ccc(C(C)Oc2cc3sc(=O)n(CCC(=O)O)c3cc2Cl)nc1 (single isomer, unassigned) [Example 25, 3-{5-chloro-6-[1-(5-ethylpyridin-2-yl)ethoxy]-2-oxo-2,3-dihydro-1,3-benzothiazol-3-yl}propanoic acid], the IC50 was ≤ 10 nM. With CCC(Oc1cc2sc(=O)n(CCC(=O)O)c2cc1Cl)c1ncc(Cl)cn1 (single isomer, unassigned) [Example 11, 3-{5-chloro-6-[1-(5-chloropyrimidin-2-yl)propoxy]-2-oxo-2,3-dihydro-1,3-benzothiazol-3-yl}propanoic acid] the IC50 was ≤ 10 nM. Cc1cnc(C(C)Oc2cc3sc(=O)n(CCC(=O)O)c3cc2Cl)nc1 (single isomer, unassigned) [Example 18, 3-{5-chloro-6-[1-(5-methylpyrimidin-2-yl)ethoxy]-2-oxo-2,3-dihydro-1,3-benzothiazol-3-yl}propanoic acid] was tested, and the IC50 was ≤ 10 nM. For CCC(Oc1cc2sc(=O)n(CCC(=O)O)c2cc1Cl)c1ncccn1 (single isomer, unassigned) [Example 29, 3-{5-chloro-2-oxo-6-[1-(pyrimidin-2-yl)propoxy]-2,3-dihydro-1,3-benzothiazol-3-yl}propanoic acid], the IC50 was ≤ 10 nM. Cc1ccc(COc2cc3sc(=O)n(CCC(=O)O)c3cc2Cl)nn1 [Example 22, 3-{5-chloro-6-[(6-methylpyridazin-3-yl)methoxy]-2-oxo-2,3-dihydro-1,3-benzothiazol-3-yl}propanoic acid] was tested, and the IC50 was ≤ 10 nM. With CCC(Oc1cc2sc(=O)n(CCC(=O)O)c2cc1Cl)c1ccccn1 (single isomer, unassigned) [Example 19, 3-{5-chloro-2-oxo-6-[1-(pyridin-2-yl)propoxy]-2,3-dihydro-1,3-benzothiazol-3-yl}propanoic acid] the IC50 was ≤ 10 nM. For CCC(Oc1cc2sc(=O)n(CCC(=O)O)c2cc1Cl)c1ccc(C)cn1 (single isomer, unassigned) [Example 8, 3-{5-chloro-6-[1-(5-methylpyridin-2-yl)propoxy]-2-oxo-2,3-dihydro-1,3-benzothiazol-3-yl}propanoic acid], the IC50 was ≤ 10 nM. CCC(Oc1cc2sc(=O)n(CCC(=O)O)c2cc1Cl)c1ccc(C)nn1 (single isomer, unassigned) [Example 32, 3-{5-chloro-6-[1-(6-methylpyridazin-3-yl)propoxy]-2-oxo-2,3-dihydro-1,3-benzothiazol-3-yl}propanoic acid] was tested, and the IC50 was ≤ 10 nM. CCC(Oc1cc2sc(=O)n(CCC(=O)O)c2cc1Cl)c1cccnn1 (single isomer, unassigned) [Example 14, 3-{5-chloro-2-oxo-6-[1-(pyridazin-3-yl)propoxy]-2,3-dihydro-1,3-benzothiazol-3-yl}propanoic acid] was tested, and the IC50 was ≤ 10 nM. For O=C(O)CCn1c(=O)sc2cc(OCc3ncc(Cl)cn3)c(Cl)cc21 [Example 27, 3-{5-chloro-6-[(5-chloropyrimidin-2-yl)methoxy]-2-oxo-2,3-dihydro-1,3-benzothiazol-3-yl}propanoic acid], the IC50 was ≤ 10 nM. With Cc1cnc(COc2cc3sc(=O)n(CCC(=O)O)c3cc2Cl)nc1 [Example 4, 3-{5-chloro-6-[(5-methylpyrimidin-2-yl)methoxy]-2-oxo-2,3-dihydro-1,3-benzothiazol-3-yl}propanoic acid] the IC50 was ≤ 10 nM. For C[C@@H](Oc1cc2sc(=O)n(CCC(=O)O)c2cc1Cl)c1ccc(Cl)cn1 [Example 1, 3-(5-chloro-6-[(R)-1-(5-chloropyridin-2-yl)ethoxy]-2-oxobenzo[d]thiazol-3(2H)-yl)propanoic acid], the IC50 was ≤ 10 nM and 1.26 nM. With CC[C@@H](Oc1cc2sc(=O)n(CCC(=O)O)c2cc1Cl)c1ccc(Cl)cn1 (single isomer, unassigned) [Example 9, 3-{5-chloro-6-[1-(5-chloropyridin-2-yl)propoxy]-2-oxo-2,3-dihydro-1,3-benzothhiazol-3-yl}propanoic acid] the IC50 was ≤ 10 nM. For Cc1ccc(COc2cc3sc(=O)n(CCC(=O)O)c3cc2Cl)nc1 [Example 30, 3-{5-chloro-6-[(5-methylpyridin-2-yl)methoxy]-2-oxo-2,3-dihydro-1,3-benzothiazol-3-yl}propanoic acid], the IC50 was ≤ 10 nM. With O=C(O)CCn1c(=O)sc2cc(OCc3ccc(Cl)cn3)c(Cl)cc21 [Example 21, 3-{5-chloro-6-[(5-chloropyridin-2-yl)methoxy]-2-oxo-2,3-dihydro-1,3-benzothiazol-3-yl}propanoic acid] the IC50 was ≤ 10 nM. With CCC(Oc1cc2sc(=O)n(CCC(=O)O)c2cc1Cl)c1ncc(C)cn1 (single isomer, unassigned) [Example 5, 3-{5-chloro-6-[1-(5-methylpyrimidin-2-yl)propoxy]-2-oxo-2,3-dihydro-1,3-benzothiazol-3-yl}propanoic acid] the IC50 was ≤ 10 nM. CC(Oc1cc2sc(=O)n(CCC(=O)O)c2cc1Cl)c1ncc(Cl)cn1 (single isomer, unassigned) [Example 24, 3-{5-chloro-6-[1-(5-chloropyrimidin-2-yl)ethoxy]-2-oxo-2,3-dihydro-1,3-benzothiazol-3-yl}propanoic acid] was tested, and the IC50 was ≤ 10 nM.
